# Data published in patent publication US20220146526A1, “METHOD FOR EVALUATING SAMPLE, ANALYSIS METHOD, METHOD FOR DETECTING DEGRADED SAMPLE, MARKER FOR DETECTING DEGRADED BLOOD PLASMA SAMPLE, AND MARKER FOR DETECTING DEGRADED SERUM SAMPLE” (SHIMADZU CORPORATION, priority 2019, published 2022).
# Several values for one entry are separate records, joined by “and”; a condition that tells them apart may be missing. Equal entries are not always repeated.
# What was measured:
# Format in all cases: physicochemical, human
# [1] = GC/MS of blood plasma sample: number of times of freezing and thawing (Table C); details: for Rate of increase or decrease: detection intensity relative to 1 at 2 times; for Increase or decrease: detection intensity; for Rate of increase or decrease (second value, decrease) / Rate of increase or decrease (first value, increase): different from individual to individual, relative to 1 at 2 times; for Rate of increase or decrease (second value, decrease): individuals with decrease; for Rate of increase or decrease (first value, increase): individuals with increase
# How it was run: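 EDTA plasma from a healthy subject, cooled within 1 min or after 5+ min, centrifuged 4 °C/3000 rpm/15 min, frozen, then freeze-thawed 2, 4, 6 or 10 times. Methoximated, trimethylsilylated samples run by GC/MS (BPX5 column, EI, MRM). Values are detection intensity relative to 2 freeze-thaw cycles set as 1.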
# [2] = GC/MS of blood plasma sample: time from blood collection to centrifugation (Table A); details: for Increase or decrease: detection intensity; for Increase or decrease / Rate of increase or decrease: blood collection to centrifugation; for Rate of increase or decrease (second value, decrease) / Rate of increase or decrease (first value, increase): different from individual to individual, relative to 1 at 15 minutes, collection to centrifugation; for Rate of increase or decrease (second value, decrease): individuals with decrease; for Rate of increase or decrease (first value, increase): individuals with increase; for Rate of increase or decrease: detection intensity relative to 1 at 15 minutes
# How it was run: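 EDTA blood from a healthy subject was cooled at 4° C, centrifuged at 4° C, 3000 rpm, 15 minutes, and plasma was frozen. After methoxymation and trimethylsilylation, samples ran on GC/MS (BPX5 column, 60-330° C gradient, electron ionization, MRM). Intensity is relative to 15 minutes from collection to centrifugation.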
# [3] = GC/MS of blood plasma sample: time from blood collection to cooling of blood (Table B); parameters: key to Rate of increase or decrease / Rate of increase or decrease (first value, increase): detection intensity relative to 1 at cooling time ≤1 min; details: for Increase or decrease: detection intensity, blood collection to cooling 5 minutes or more vs 1 minute or less; for Rate of increase or decrease (second value, decrease) / Rate of increase or decrease (first value, increase): different from individual to individual, relative to 1 at 1 minute or less, collection to cooling 5 minutes; for Rate of increase or decrease (second value, decrease): individuals with decrease; for Rate of increase or decrease (first value, increase): individuals with increase; for Rate of increase or decrease: detection intensity relative to 1 at 1 minute or less, blood collection to cooling 5 minutes
# How it was run: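 Blood drawn at room temperature into EDTA tubes, mixed, then cooled at 4° C. within 1 minute or less versus 5 minutes or more before centrifugation (4° C., 3000 rpm, 15 minutes). Plasma was frozen, methoxymated and trimethylsilylated, and analysed by EI GC/MS in MRM mode. Values are detection intensity relative to the ≤1 minute condition.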
# [4] = GC/MS of serum sample: number of times of freezing and thawing (Table I); parameters: key to Rate of increase or decrease / Rate of increase or decrease (first value, increase): detection intensity relative to 2 freeze-thaw cycles = 1; details: for Rate of increase or decrease: detection intensity relative to 1 at 2 times; for Number of times when compound is affected: detection intensity changed by 30% or more vs 2 times of freezing and thawing
# How it was run: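 Serum was isolated after centrifugation at room temperature (3500 rpm, 5 min), frozen, and put through 2, 4, 6 or 10 freeze–thaw cycles. Samples were methoxymated and trimethylsilylated, then run by electron-ionization GC/MS in MRM mode on a BPX5 column (60 to 330 °C). Detection intensity is given relative to the 2-cycle sample, set as 1.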
# [5] = GC/MS of serum sample: time from blood collection to centrifugation (Table G); details: for Rate of increase or decrease: detection intensity relative to 1 at 15 minutes; for Rate of increase or decrease / Increase or decrease: blood collection to centrifugation; for Increase or decrease: detection intensity; for Rate of increase or decrease (second value, decrease) / Rate of increase or decrease (first value, increase): different from individual to individual, relative to 1 at 15 minutes, collection to centrifugation; for Rate of increase or decrease (second value, decrease): individuals with decrease; for Rate of increase or decrease (first value, increase): individuals with increase
# How it was run: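 Blood was held for varying times before centrifugation (room temperature, 3500 rpm, 5 min); serum was frozen, then methoxymated and trimethylsilylated for GC/MS with electron ionization in MRM mode. Values are detection intensities relative to the 15-minute collection-to-centrifugation condition, set as 1.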
# [6] = GC/MS of serum sample: time from centrifugation to isolation (Table H); parameters: key to Rate of increase or decrease / Rate of increase or decrease (first value, increase): detection intensity relative to 1 at 30 min centrifugation-to-isolation; details: for Rate of increase or decrease: detection intensity relative to 1 at 30 minutes; for Increase or decrease: detection intensity
# How it was run: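 Blood was centrifuged at room temperature, 3500 rpm, 5 min, and the vessel left at room temperature for 30 min, 1 h or 6 h before serum isolation. Serum was methoxymated, trimethylsilylated and analysed by GC/MS with electron ionization in MRM mode; intensities expressed relative to the 30-min condition (=1).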
# [7] = freezing and thawing 4 times vs 2 times
# [8] = 10 times of freezing and thawing
# [9] = serum sample, GC/MS, detection intensity vs 2 times of freezing and thawing
# [10] = serum, GC/MS, freezing and thawing 4 times
# [11] = detection intensity, serum, GC/MS, freezing and thawing 4 times vs 2 times
# [12] = serum, GC/MS, freezing and thawing 6 times
# [13] = detection intensity, serum, GC/MS, freezing and thawing 6 times vs 2 times
"Increase or decrease [1, 7]",Increase or decrease ([2]; after 4 hours vs 15 minutes),"Rate of increase or decrease (second value, decrease) ([2]; after 4 hours)","Rate of increase or decrease (first value, increase) ([2]; after 4 hours)",Increase or decrease [3],"Rate of increase or decrease (second value, decrease) [3]","Rate of increase or decrease (first value, increase) [3]",Rate of increase or decrease ([5]; after 4 hours),Increase or decrease ([5]; after 4 hours vs 15 minutes),Rate of increase or decrease ([6]; after 1 hour),Increase or decrease ([6]; after 1 hour vs 30 minutes),"Rate of increase or decrease (second value, decrease) ([1]; freezing and thawing 4 times)","Rate of increase or decrease (first value, increase) ([1]; freezing and thawing 4 times)",Rate of increase or decrease [3],"Rate of increase or decrease [4, 10]","Increase or decrease [4, 11]",Increase or decrease ([5]; after 8 hours vs 15 minutes),SMILES,also measured
Decrease,Different from individual,0.69,2.53,Different from individual,0.69,2.20,18.00,Increase,2.12,Increase,–,–,–,–,–,–,OC[C@H]1O[C@@](CO)(O[C@H]2O[C@H](CO)[C@@H](O)[C@H](O)[C@H]2O)[C@@H](O)[C@@H]1O [Sucrose],"Rate of increase or decrease ([1]; freezing and thawing 4 times): 0.53; Rate of increase or decrease [4, 8]: 0.64; Number of times when compound is affected ([4]; serum sample, GC/MS): 10 times; Increase or decrease [4, 9]: Decrease"
Different from individual,Decrease,–,–,Decrease,–,–,2.55,Increase,1.44,Increase,0.54,2.48,0.59,0.50,Decrease,–,Oc1ccccn1 [2-Hydroxypyridine],Rate of increase or decrease ([2]; after 4 hours): 0.57
–,–,–,–,Different from individual,0.58,5.01,–,–,1.45,Increase,–,–,–,–,–,Increase,OC[C@H]1O[C@H](O[C@H]2O[C@H](CO)[C@@H](O)[C@H](O)[C@H]2O)[C@H](O)[C@@H](O)[C@@H]1O [Trehalose],"Rate of increase or decrease ([1]; freezing and thawing 6 times): 1.98; Increase or decrease ([1]; freezing and thawing 6 times vs 2 times): Increase; Rate of increase or decrease ([2]; after 8 hours): 0.56; Increase or decrease ([2]; after 8 hours vs 15 minutes): Decrease; Rate of increase or decrease [4, 8]: 0.69; Number of times when compound is affected ([4]; serum sample, GC/MS): 10 times; Increase or decrease [4, 9]: Decrease; Rate of increase or decrease ([5]; after 8 hours): 1.50"
Different from individual,Different from individual,0.32,1.88,Decrease,–,–,1.91,Increase,3.07,Increase,0.58,1.59,0.61,0.47,Decrease,–,N[C@@H](CS(=O)O)C(=O)O [3-Sulfinoalanine],–
–,Different from individual,0.47,1.75,Different from individual,0.54,1.38,1.65,Increase,1.43,Increase,–,–,–,2.62,Increase,–,O=C(O)/C=C\C(=O)O [Maleic acid],Rate of increase or decrease ([1]; freezing and thawing 10 times): 2.12; Increase or decrease ([1]; freezing and thawing 10 times vs 2 times): Increase
Increase,–,–,–,Decrease,–,–,–,Different from individual,2.37,Increase,–,–,0.56,1.60,Increase,Different from individual,OC[C@H]1O[C@@H](O[C@H]2[C@H](O)[C@@H](O)C(O)O[C@@H]2CO)[C@H](O)[C@@H](O)[C@H]1O (stereo partly shown) [Lactose],"Rate of increase or decrease ([1]; freezing and thawing 4 times): 1.40; Rate of increase or decrease ([2]; after 12 hours): 0.70; Increase or decrease ([2]; after 12 hours vs 15 minutes): Decrease; Rate of increase or decrease [4, 12]: 1.33; Increase or decrease [4, 13]: Increase; Rate of increase or decrease (second value, decrease) ([5]; after 4 hours): 0.62; Rate of increase or decrease (second value, decrease) ([5]; after 8 hours): 0.65; Rate of increase or decrease (first value, increase) ([5]; after 4 hours): 1.31; Rate of increase or decrease (first value, increase) ([5]; after 8 hours): 3.99; Rate of increase or decrease ([6]; after 6 hours): 1.43; Increase or decrease ([6]; after 6 hours vs 30 minutes): Increase"

SMILES,"Increase or decrease [1, 7]",Increase or decrease ([2]; after 4 hours vs 15 minutes),"Rate of increase or decrease (second value, decrease) ([2]; after 4 hours)","Rate of increase or decrease (first value, increase) ([2]; after 4 hours)",Increase or decrease [3],"Rate of increase or decrease (second value, decrease) [3]","Rate of increase or decrease (first value, increase) [3]",Rate of increase or decrease ([5]; after 4 hours),Increase or decrease ([5]; after 4 hours vs 15 minutes),Rate of increase or decrease ([6]; after 1 hour),Increase or decrease ([6]; after 1 hour vs 30 minutes),"Rate of increase or decrease (second value, decrease) ([1]; freezing and thawing 4 times)","Rate of increase or decrease (first value, increase) ([1]; freezing and thawing 4 times)",Rate of increase or decrease [3],"Rate of increase or decrease [4, 10]","Increase or decrease [4, 11]",Increase or decrease ([5]; after 8 hours vs 15 minutes),also measured
O=C(CO)[C@H](O)[C@H](O)[C@H](O)CO [Psicose],Different from individual,Increase,–,–,Different from individual,0.43 and 0.27,3.24 and 1.94,–,–,0.57,Decrease,0.70,1.77,–,0.54,Decrease,Decrease,"Rate of increase or decrease ([2]; after 4 hours): 4.33; Rate of increase or decrease [4, 12]: 1.30; Increase or decrease [4, 13]: Increase; Rate of increase or decrease ([5]; after 8 hours): 0.65"
